Assay results as given in patent publication US20180327719A1, “METHOD FOR PRODUCING PANCREATIC BUD CELLS” (Kyoto University, priority 2015, published 2018).

Experiments:
Type in all cases: cell-based, human
[1] = tested on: PDX1+/NKX6.1− cells derived from iPS cell line (585A1); assay: Cell number count after Stage 3 culture with AT7867; conditions: 0.01 μM to 50 μM AT7867, 4 days, versus DMSO negative control (FIG. 2)
Description: (§1) The medium in the cell culture obtained in Stage 2-3 was changed to Improved MEM Zinc Option medium (15×10^4/ml) supplemented with 100 ng/ml KGF, 0.2 μM LDN193189, 50 ng/ml EGF (R&D systems, Inc.), indicated concentrations (0.01 μM to 50 μM) of AT7867 (Selleck Chemicals), 1% B-27 (DMSO as negative control) and the cells were further cultured for 4 days.

[2] = tested on: PDX1+ cells; assay: Immunostaining with anti-PDX1 and anti-Ki67 antibodies in Stage 3; conditions: 1 μM AT7867, 1 to 4 days after addition in Stage 3 (FIG. 3)
Description: as §1

[3] = tested on: NKX6.1+ cells; assay: Immunostaining with anti-NKX6.1 antibody after Stage 3; conditions: indicated concentrations of AT7867, after Stage 3 (FIG. 4A, 4B)
Description: as §1

[4] = tested on: PDX1+/NKX6.1+ cells; assay: Double staining with anti-PDX1 and anti-NKX6.1 antibodies (flow cytometry) after Stage 3; conditions: addition of AT7867, after Stage 3 (FIGS. 5A and B)
Description: as §1

[5] = tested on: PDX1, PTF1A, and NKX6.1 genes; assay: Quantitative PCR of PDX1, PTF1A and NKX6.1 gene expression during Stage 3; conditions: 1 μM AT7867, Day 0 to Day 4 of Stage 3, standardized with GAPDH, versus DMSO (FIG. 6)
Description: In Stage the cells were cultured in the presence of 1 μM AT7867. Cells were collected every day from Day 0 to Day 4 in Stage 3 and expression of PDX1, PTF1A, and NKX6.1 genes was measured by quantitative PCR. RNAs were extracted from the cells using RNeasy kit (Qiagen) and the reverse transcription reaction was performed with ReverTra Ace qPCR RT Master Mix (Toyobo) and oligo (dT) 20 primer. The quantitative PCR was performed with SYBR Premix Ex Taq II (Takara) using StepOnePlus™ Real-Time PCR System (Applied Biosystems). The gene expression was standardized with the expression of GAPDH gene and the relative gene expression was calculated from the relative standard curve (FIG. 6). […] PTF1A and NKX6.1 are transcription factors that indicate the differentiation of the cells into pancreatic bud cells

Clc1ccc(C2(c3ccc(-c4cn[nH]c4)cc3)CCNCC2)cc1 [AT7867]
number of cells obtained in Stage 3 [1]: increased in a manner dependent on the concentration of AT7867
PDX1 status of proliferated (Ki67+) cells [2]: proliferated cells were positive for at least PDX1
cells positive for at least NKX6.1 [3]: increased in a manner dependent on the concentration of AT7867
PDX1+/NKX6.1+ cells [4]: increased by the addition of AT7867
expression of NKX6.1 [5]: increased over time
expression of PDX1 [5]: increased over time
expression of PTF1A [5]: increased over time
